Assay results: US9056087B2, “Methods of healing or preventing inflammation, damage and other changes that occur prior to, during or immediately after a myocardial event with thymosin beta 4, analogues, isoforms and other derivatives” (REGENERX BIOPHARMACEUTICALS, INC., priority 2001, dated 2015)

Test system: cardiac endothelial cells
Experiment: collagen gel assay: transformation of cardiac endothelial cells to mesenchymal cells
Format: cell-based
Settings: at physiological concentrations (Tβ4)
Procedure: Synthetic Tβ4 and an antibody to Tβ4 was provided by RegeneRx Biopharmaceuticals, Inc. (3 Bethesda Metro Center, Suite 700, Bethesda, Md. 20814) and were tested in a collagen gel assay to determine their effects on the Transformation of cardiac endothelial cells to mesenchymal cells. It is Well established that development of heart valves and other cardiac tissue are formed by epithelial-mesenchymal transformation and that defects in this process can cause serious cardiovascular malformation and injury during development and throughout life. […] Transformation of atrioventricular endocardium into invasive mesenchyme is critical in the formation and maintenance of normal cardiac tissue and in the formation of heart valves.

Thymosin β4 (SDKPDMAEIEKFDKSKLKKTETQEKNPLPSKETIEQEKQAGES; not fully specified; Thymosin beta-4; UniProt P62328 2-44, looked up) [Tβ4, synthetic Tβ4 provided by RegeneRx]
effect on the transformation of endocardial cells to mesenchymal cells in the collagen gel assay: markedly enhances the transformation
